From patent US10556907B2 (AbbVie Inc., priority 2015, dated 2020) come the findings set out here.

Common to all, as to assay: Method 1: intracellular Ca2+ release (FLIPR, Calcium 5) in recombinant CHO-K1 cells
Common to all, as to assay type: cell-based

In one test the target is T1, human S1PR5 receptor (Homo sapiens, UniProt Q9H228).
T1 construct: host or cells: CHO-K1
Particulars: agonist potency, determined with method 1 (symbols A-D); read-out: S1P5 EC50 range. The procedure, abridged:
(§1)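 Agonist EC50 values come from nonlinear fits of FLIPR Ca2+ fluorescence, normalized to the phospho-fingolimod reference curve. Recombinant CHO-K1 (receptor plus Gq/i5, aequorin) dye-loaded 1 h at 37° C in pH 7.4 Hepes/probenecid/BSA buffer. Antagonist mode: 10 min preincubation before phospho-fingolimod at EC80.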

Another test deals with T2, human S1PR4 receptor (Homo sapiens, UniProt O95977).
T2 construct: host or cells: CHO-K1
T2 sequence (O95977 1-384): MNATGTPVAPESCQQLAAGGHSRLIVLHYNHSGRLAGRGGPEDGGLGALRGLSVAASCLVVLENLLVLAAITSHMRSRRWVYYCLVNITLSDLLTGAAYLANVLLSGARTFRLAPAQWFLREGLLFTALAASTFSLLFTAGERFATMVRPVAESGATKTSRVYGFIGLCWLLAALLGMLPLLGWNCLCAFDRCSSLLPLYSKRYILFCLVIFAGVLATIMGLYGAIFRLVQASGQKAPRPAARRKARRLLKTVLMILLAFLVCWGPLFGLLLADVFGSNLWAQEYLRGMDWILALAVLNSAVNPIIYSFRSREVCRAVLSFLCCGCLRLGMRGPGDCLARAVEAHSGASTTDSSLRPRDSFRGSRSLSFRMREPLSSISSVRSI
Particulars: (1): determined with method 1; read-out: S1P4 EC50. The gist of the method:
as §1

Another test has as its target T3, human S1PR1 receptor (Homo sapiens, UniProt P21453).
T3 construct: host or cells: CHO-K1
Particulars: (1): determined with method 1; read-out: S1P1 EC50. The gist of the method:
as §1

Where a name gives a salt, the structure may show the parent alone. Where only a bound is given, the exact number is not on record here.

T3 sequence (P21453 whole entry): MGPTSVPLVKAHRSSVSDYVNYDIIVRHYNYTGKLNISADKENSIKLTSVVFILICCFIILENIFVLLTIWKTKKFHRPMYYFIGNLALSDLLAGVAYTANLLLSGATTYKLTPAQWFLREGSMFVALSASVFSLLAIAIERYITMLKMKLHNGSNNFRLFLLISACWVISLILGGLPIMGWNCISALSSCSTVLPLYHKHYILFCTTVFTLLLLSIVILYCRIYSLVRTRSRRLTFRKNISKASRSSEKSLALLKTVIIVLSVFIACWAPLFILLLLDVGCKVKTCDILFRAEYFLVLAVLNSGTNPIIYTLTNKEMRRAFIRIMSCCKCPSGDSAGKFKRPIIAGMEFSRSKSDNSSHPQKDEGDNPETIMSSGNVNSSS
T1 sequence (Q9H228 whole entry): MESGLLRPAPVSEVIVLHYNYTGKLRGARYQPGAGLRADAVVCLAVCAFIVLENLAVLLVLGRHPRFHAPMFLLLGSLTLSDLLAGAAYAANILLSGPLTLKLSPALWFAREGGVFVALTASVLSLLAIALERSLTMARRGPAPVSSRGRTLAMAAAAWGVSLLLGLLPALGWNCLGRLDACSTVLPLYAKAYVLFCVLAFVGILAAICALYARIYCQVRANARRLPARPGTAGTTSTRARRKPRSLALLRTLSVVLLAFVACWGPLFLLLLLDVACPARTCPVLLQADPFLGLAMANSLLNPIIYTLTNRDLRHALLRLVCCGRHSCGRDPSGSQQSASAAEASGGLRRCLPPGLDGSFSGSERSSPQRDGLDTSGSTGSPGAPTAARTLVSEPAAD

A word on the EC50: it is the midpoint of the concentration-response curve. As for `Cc1cc(-c2ncc3c(n2)CCN(CC(C)CC(=O)O)C3)ccc1OCc1ccccc1Cl` (stereo not drawn) [Compound 262, 4-(2-(4-((2-chlorobenzyl)oxy)-3-methylphenyl)-7,8-dihydropyrido[4,3-d]pyrimidin-6(5H)-yl)-3-methylbutanoic acid], the EC50 was 10 to 100 nM on human S1PR5 receptor, over 1000 nM at human S1PR4 receptor and over 1000 nM at human S1PR1 receptor.
With `Cc1cccc(COc2ccc(-c3ncc4c(n3)CCN(CC(C)CC(=O)O)C4)c(F)c2)c1` (stereo not drawn) [Compound 264, 4-[2-[2-fluoro-4-(m-tolylmethoxy)phenyl]-7,8-dihydro-5H-pyrido[4,3-d]pyrimidin-6-yl]-3-methyl-butanoic acid 2,2,2-trifluoroacetic acid salt], the EC50 on human S1PR5 receptor is 10 to 100 nM; on human S1PR4 receptor, over 1000 nM; at human S1PR1 receptor, over 1000 nM.
As to `Cc1cc(-c2ncc3c(n2)CCN(CC(C)CC(=O)O)C3)ccc1OCc1ccc(F)cc1` (stereo not drawn) [Compound 269, 4-[2-[4-[(4-fluorophenyl)methoxy]-3-methyl-phenyl]-7,8-dihydro-5H-pyrido[4,3-d]pyrimidin-6-yl]-3-methyl-butanoic acid 2,2,2-trifluoroacetic acid salt], the EC50 on human S1PR5 receptor was 10 to 100 nM; at human S1PR4 receptor it was over 1000 nM; on human S1PR1 receptor, over 1000 nM.
Consider `Cc1cc(-c2ncc3c(n2)CCN(C[C@@H](C)CC(=O)O)C3)ccc1OCc1ccc(Cl)cc1` [Compound 270, (S)-4-(2-(4-((4-chlorobenzyl)oxy)-3-methylphenyl)-7,8-dihydropyrido[4,3-d]pyrimidin-6(5H)-yl)-3-methylbutanoic acid], for which the values for the EC50 on human S1PR5 receptor, at human S1PR4 receptor and at human S1PR1 receptor were 10 to 100 nM, over 1000 nM and over 1000 nM, respectively.
As to `Cc1ccc(C(F)(F)F)cc1COc1ccc(-c2ncc3c(n2)CCN(CC(C)CC(=O)O)C3)c(F)c1` (stereo not drawn) [Compound 272, 4-[2-[2-fluoro-4-[[2-methyl-5-(trifluoromethyl)phenyl]methoxy]phenyl]-7,8-dihydro-5H-pyrido[4,3-d]pyrimidin-6-yl]-3-methyl-butanoic acid 2,2,2-trifluoroacetic acid salt], the EC50 is 10 to 100 nM at human S1PR5 receptor, over 1000 nM at human S1PR4 receptor and over 1000 nM at human S1PR1 receptor.
Regarding `Cc1cc(-c2ncc3c(n2)CCN(CC(C)CC(=O)O)C3)ccc1OCc1cccc(C(F)(F)F)c1C` (stereo not drawn) [Compound 273, 3-methyl-4-(2-(3-methyl-4-((2-methyl-3-(trifluoromethyl)benzyl)oxy)phenyl)-7,8-dihydropyrido[4,3-d]pyrimidin-6(5H)-yl)butanoic acid], the EC50 on human S1PR5 receptor is 10 to 100 nM; on human S1PR4 receptor, over 1000 nM; on human S1PR1 receptor, over 1000 nM.
As for `Cc1cc(-c2ncc3c(n2)CCN(CC(C)CC(=O)O)C3)ccc1OCc1c(C)cccc1C` (stereo not drawn) [Compound 274, 4-[2-[4-[(2,6-dimethylphenyl)methoxy]-3-methyl-phenyl]-7,8-dihydro-5H-pyrido[4,3-d]pyrimidin-6-yl]-3-methyl-butanoic acid 2,2,2-trifluoroacetic acid salt], the values for the EC50 at human S1PR5 receptor, at human S1PR4 receptor and on human S1PR1 receptor were 10 to 100 nM, over 1000 nM and over 1000 nM, respectively.
As for `Cc1cccc(C)c1COc1ccc(-c2ncc3c(n2)CCN(CC(C)CC(=O)O)C3)c(F)c1` (stereo not drawn) [Compound 276, 4-[2-[4-[(2,6-dimethylphenyl)methoxy]-2-fluoro-phenyl]-7,8-dihydro-5H-pyrido[4,3-d]pyrimidin-6-yl]-3-methyl-butanoic acid 2,2,2-trifluoroacetic acid salt], the EC50 on human S1PR5 receptor was 10 to 100 nM; at human S1PR4 receptor, over 1000 nM; on human S1PR1 receptor it was over 1000 nM.
For `C[C@@H](CC(=O)O)CN1CCc2nc(-c3ccc(CCc4ccc(Cl)cc4)cc3)ncc2C1` [Compound 278, (S)-4-(2-(4-(4-chlorophenethyl)phenyl)-7,8-dihydropyrido[4,3-d]pyrimidin-6(5H)-yl)-3-methylbutanoic acid], the EC50 at human S1PR5 receptor was 10 to 100 nM; at human S1PR4 receptor it was over 1000 nM; at human S1PR1 receptor, over 1000 nM.
